Several values for one entry are separate records, joined by “and”; a condition that tells them apart may be missing. Equal entries are not always repeated. Where only a bound is given, the exact number is not on record here.

The nature of data set [1]: Rapid equilibrium dialysis, protein binding in plasma. It is filed as in vitro ADME. As to conditions: C57BL/6N, mouse, plasma (pooled samples from the study mice), mean (range). Here is the method: Plasma samples collected from individual mice at each time point were pooled into composite samples due to insufficient sample volumes for performing RED. Similarly, brain homogenate samples from individual time points were pooled. RED was performed according to the manufacturer’s protocol (for details, see the Supplementary Materials). The free drug fraction in plasma was calculated by using Equation 1:
Rapid Equilibrium Dialysis. Briefly, 50 µL of drug-spiked plasma or 100 µL of 10-fold diluted brain homogenates were added to the sample chambers of the RED device, while 300 µL or 350 µL of phosphate-buffered saline (PBS, pH at 7.4) were added to the corresponding buffer chambers. Each pooled sample was analysed in triplicate. Control samples consisting of plasma and brain homogenates from the study, spiked with clozapine and trazodone at a target concentration of 100 ng/mL, were analysed in each measurement series. Each plate was sealed with aluminium foil and incubated at 37 ± 1 °C with an agitation at 350 rpm on an orbital shaker (Randox PHMP, Grant Instruments Ltd, Shepreth, Cambridgeshire, England) for 4 hours. After incubation, a matrix-matching procedure was performed: 10 µL of each post-dialysis sample was mixed with an equal volume of PBS, while 10 µL of each buffer sample was mixed with the corresponding blank plasma or brain homogenate. […]
A general note: Equilibrium dialysis compares concentrations on both sides of a semipermeable membrane.

Data set [2] in a line: Rapid equilibrium dialysis, binding in brain homogenates. It is filed as in vitro ADME, mice. To be noted: C57BL/6N, mouse; for fraction unbound at 4 h: mean (range), pooled samples, read-out: unbound fraction in the brain homogenate; for fraction unbound at 4 h, 100 ng/mL: pH 7.4, RED control samples spiked at 100 ng/mL, range, read-out: unbound fraction in brain homogenate, control samples. Here is the method:
Plasma samples collected from individual mice at each time point were pooled into composite samples due to insufficient sample volumes for performing RED. Similarly, brain homogenate samples from individual time points were pooled. RED was performed according to the manufacturer’s protocol (for details, see the Supplementary Materials). The free drug fraction in plasma was calculated by using Equation 1: […]
The free drug fraction in the brain homogenate was determined by using Equation 2, which accounts for the effect of tissue dilution on the unbound fraction:
fu,brain=1/D/(1/fu,diluted−1)+1/D
were D is the dilution factor in the brain homogenate and the fu,diluted associated free fraction determined as the ratio of concentrations in the buffer versus the diluted brain tissue.
Rapid Equilibrium Dialysis. Briefly, 50 µL of drug-spiked plasma or 100 µL of 10-fold diluted brain homogenates were added to the sample chambers of the RED device, while 300 µL or 350 µL of phosphate-buffered saline (PBS, pH at 7.4) were added to the corresponding buffer chambers. Each pooled sample was analysed in triplicate. Control samples consisting of plasma and brain homogenates from the study, spiked with clozapine and trazodone at a target concentration of 100 ng/mL, were analysed in each measurement series. Each plate was sealed with aluminium foil and incubated at 37 ± 1 °C with an agitation at 350 rpm on an orbital shaker (Randox PHMP, Grant Instruments Ltd, Shepreth, Cambridgeshire, England) for 4 hours. After incubation, a matrix-matching procedure was performed: 10 µL of each post-dialysis sample was mixed with an equal volume of PBS, while 10 µL of each buffer sample was mixed with the corresponding blank plasma or brain homogenate. Prior to analysis, 20 µL of the mixed plasma or brain homogenate samples were precipitated with 80 µL of acetonitrile containing an internal standard.

The next data set is described as follows: in vivo. As to conditions: for AUC(0-t): plasma, AUCt plasma, mean (95% CI). Here is the method: (§1) After a 1-week acclimation period, the mice were randomly assigned to 2 experimental groups of 36 animals each: (1) an LPS group was given a single 4 mg/kg intraperitoneal (IP) injection of lipopolysaccharide (LPS), serotype O55:B05 (Sigma) and (2) a control group received a vehicle (sterile phosphate-buffered saline). […] The volume load for mice weighing 25 g was 125 µL. […] The doses of DMSO and MC were 276 and 25 mg/kg. […] Sampling was performed at 2 intervals in each of the 18 mice injected with LPS and 18 controls. The first blood volume of 150 µL was taken into an EDTA-microvette CB 300 (Sardstedt) from a drop of blood after a small incision at the end of the tail. At the termination interval, the second blood sample was collected by cardiac puncture in terminal anesthesia, and then the animal was put to death by decapitation. […] The injected volume was 1 mL/kg, that is, 25 µL for a 25 g mouse. […] The injected volume was 2.5 mL/kg, that is, […]. After IV administrations, blood was sampled at 3, 5, 10, 20, and 40 minutes, and 1, 1.5, 2, 3, 4, and 6 hours. Blood samples were taken at 3 intervals in each mouse. The first 2 samples of 75 µL each were taken from the retroorbital plexus under brief anesthesia and the third terminal sample was described for oral dosing. Plasma samples were obtained from whole blood by centrifugation at 2000 × g for 5 minutes at 4°C. Whole brain, liver, and intestine were excised and immediately frozen in liquid nitrogen. All samples were stored at −80°C until analysis.
(§2) Details of the analysis can be found in the Supplementary Materials.
The calculation of the point estimate and the 95% bootstrap t-confidence interval for AUCt was performed with the help of the R-package PK (https://cran.r-project.org/web/packages/PK/index.html). Total brain-to-plasma drug partition coefficient (Kp,brain) and unbound brain-to-unbound plasma partition coefficient (Kp,uu, brain) were calculated using Equations 3 and 4: […]

Data set [3] is described as follows: Brain penetration (brain homogenate AUCt, Kp,brain, Kp,uu,brain). To be noted: for Kp uu / Kp: C57BL/6N, mouse, brain, 0.5 mg/kg; for Kp uu: Kp,uu,brain; for Kp: Kp,brain; for AUCt brain homogenate: 4 mg/kg PO OL, t = 24 hours, mean (95% CI); for animals with brain homogenate concentration below the detection limit of 0.20 ng/g: PO olanzapine. Here is the method:
as §1, §2
The calculation of the point estimate and the 95% bootstrap t-confidence interval for AUCt was performed with the help of the R-package PK (https://cran.r-project.org/web/packages/PK/index.html). Total brain-to-plasma drug partition coefficient (Kp,brain) and unbound brain-to-unbound plasma partition coefficient (Kp,uu, brain) were calculated using Equations 3 and 4:
Kp,brain=AUCt,brain/AUCt,plasma
Kp, uu,brain=fu,brain × AUCt,brain/fu, plasma × AUCt,plasma

The conditions of data set [4]: C57BL/6N, mouse, in vivo.
Method: (§3) The individual values of the pharmacokinetic parameters were obtained as empirical Bayes estimates.
(§4) In the second step, the concentration-time data after the intravenous administration of DMO were modelled to assess distribution and elimination of the metabolite. […] The PK parameters of DMO were fixed to the values estimated after a single IV dose of the metabolite. […] The goodness-of-fit achieved by the pharmacokinetic models was assessed with the help of the objective function value and diagnostic plots of 1/observed and predicted concentrations vs. time, 2/ observed vs. individually predicted concentrations, 3/ weighted residuals vs. time and 4/ weighted residuals vs. predicted concentrations. Finally, the mean prediction errors and the mean absolute prediction errors were calculated.
(§5) The between-animal variability in model parameters were described by an exponential model and a proportional model was used to describe the residual variability.
The conditions of data set [5]: protonated form; no reference given; cited from earlier work.
Data set [6] in a line: Population compartmental pharmacokinetic modelling of olanzapine and DMO.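 Further: pharmacokinetic model fitted to concentration-time data, with between-animal variability described exponentially, residual error proportional, and effect of LPS injection assessed on clearance and distribution volumes.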
Method: as §3, §4, §5
For a further data set, the system named is mice. Further details: method as in supplement 4. As to conditions: p.o., ref supplement 4; cited from earlier work.
Details of data set [7]: method as in supplement 9. To be noted: rat; 15 % (w:v) DMSO (660 mg/kg) in 0.5 % MC p.o.; ref supplement 9; cited from earlier work.

The fraction unbound is the share of the substance not bound to proteins or other matrix. By AUC(0-t) is commonly meant the area under the concentration-time curve up to a stated or last time point. The term pKa denotes the pH at which an ionisable group is half protonated. Broadly, the clearance is the rate of elimination divided by the concentration. On to `Cc1cc2c(s1)Nc1ccccc1N=C2N1CCNCC1` [DMO, 4’-N-desmethylolanzapine], for which the fraction unbound at 4 h in data set [1] (pH 7.4, LPS mice) worked out at 0.083. The same compound returned a fraction unbound at 4 h in [1] (pH 7.4, control mice) of 0.13. Moreover, the fraction unbound at 4 h in data set [2] (pH 7.4, LPS mice) came out at 0.088. The fraction unbound at 4 h in data set [2] (pH 7.4, control mice) was found to be 0.087. In addition, the “increase of mean plasma AUC24h, LPS mice vs controls” value in “in vivo” (C57BL/6N, mouse, in vivo, 4 mg/kg) stood at 2.6 fold. In addition, the “increase of plasma AUC in LPS mice” value in “in vivo” (C57BL/6N, mouse, in vivo, po) came out at 140%. In “in vivo” (C57BL/6N, mouse, iv, 0.5 mg/kg, Controls, 0.5 mg/kg IV DMO, t = 6 hours), this compound came in with an AUC(0-t) of 562 ng·h/mL. In addition, in the data set “in vivo” (C57BL/6N, mouse, iv, 0.5 mg/kg, Controls, 0.5 mg/kg IV olanzapine, t = 6 hours), the AUC(0-t) was determined as 28.7 ng·h/mL. For the same compound, the AUC(0-t) in the data set “in vivo” (C57BL/6N, mouse, iv, 0.5 mg/kg, LPS mice, 0.5 mg/kg IV DMO, t = 6 hours) was 1690 ng·h/mL. The compound further returned an AUC(0-t) in “in vivo” (C57BL/6N, mouse, iv, 0.5 mg/kg, LPS mice, 0.5 mg/kg IV olanzapine, t = 6 hours) of 57.6 ng·h/mL. The AUC(0-t) in the data set “in vivo” (C57BL/6N, mouse, po, 4 mg/kg, Controls, 4 mg/kg PO olanzapine, t = 24 hours) amounted to 408 ng·h/mL. Moreover, the AUC(0-t) in the data set “in vivo” (C57BL/6N, mouse, po, 4 mg/kg, LPS mice, 4 mg/kg PO olanzapine, t = 24 hours) was found to be 1070 ng·h/mL. The same compound returned a Kp uu in data set [3] (intravenous, abstract, LPS and control mice) of at most 0.051. For the same compound, in data set [3] (iv, Controls, 0.5 mg/kg IV DMO), the Kp amounted to 0.077 and the Kp uu came to 0.051. Also, in data set [3] (iv, LPS mice, 0.5 mg/kg IV DMO), the Kp was found to be 0.039 and the Kp uu was 0.042. For the same compound, the AUCt brain homogenate entry in [3] (Controls) was “trace levels^b”. The “brain homogenate levels after IV olanzapine” value in [3] (LPS animals and controls, IV olanzapine) is recorded as “neither the LPS animals nor the controls had any brain homogenate levels of DMO higher than the limits of detection”. For the same compound, in [3] (LPS group), the “animals with brain homogenate concentration below the detection limit of 0.20 ng/g” value is 4 of 18. The AUCt brain homogenate entry in data set [3] (LPS mice) is listed as “trace levels^b”. Further, the “animals with brain homogenate concentration below the detection limit of 0.20 ng/g” value in data set [3] (control group) was 5 of the 18. Besides, in data set [4], the Q was 2.51 (30%) L·hour^−1.kg^-1, the V1 is given as 1.6 (14%) L.kg^-1, the V2 is 1.49 (14%) L.kg^-1 and the “decrease in the plasma clearance of DMO in LPS mice” value is reported as 4.8 fold. In [4], the βCL_LPS is recorded as -1.54 (21%); the βV1_LPS is recorded as -1.2 (15%); the βV2_LPS is -0.56 (38%); the “ωCL, percent interindividual variability” value is reported as 54 (34%). In addition, in data set [4], the “ωQ, percent interindividual variability” value is reported as 17 (90%); the “ωV1, percent interindividual variability” value is given as 37 (18%); the “ωV2, percent interindividual variability” value is recorded as 13 (122%). Besides, in [4] (iv), the “decrease of median V1 by LPS in comparison to controls” value is given as 70% and the “decrease of median V2 by LPS in comparison to controls” value came to 43%. Moreover, in [5], the pKa was 8.8. This compound also had a clearance in data set [6] (C57BL/6N, mouse, plasma) of 10.3 mL/min/kg.
As a reminder, the LD50 is the dose at which mortality reaches 50%. With `C[S+](C)[O-]` [DMSO, dimethyl sulfoxide], the LD50 with mice was 16500 to 24600 mg/kg.
Take `O=C1CCc2cc(OCCCCc3nnnn3C3CCCCC3)ccc2N1` [cilostazole]: the “increase of AUC for plasma cilostazole by DMSO” value in data set [7] is given as 32%.
Turning to `CN1CCN(C2=Nc3cc(Cl)ccc3Nc3ccccc32)CC1` [clozapine], the fraction unbound at 4 h, 100 ng/mL in [2] lay in the range of 0.014 to 0.021.
For orientation: CL/F means the apparent clearance, not corrected for the fraction that reaches the circulation. Take `Cc1cc2c(s1)Nc1ccccc1N=C2N1CCN(C)CC1` [olanzapine]: the “increase of mean plasma AUC24h, LPS mice vs controls” value in the data set “in vivo” (4 mg/kg PO olanzapine) is given as 3.8 fold. In “in vivo” (mouse, in vivo, po, 4 mg/kg), this compound gave a CL/F of 552 mL/min/kg. Also, the “brain AUC higher in LPS mice than controls” value in [3] (intravenous olanzapine 0.5 mg/kg) was determined as 1.8 fold. Besides, the “brain AUC higher in LPS mice than controls” value in data set [3] (oral olanzapine 4 mg/kg) was 5.2 fold and 5 fold. Also, in data set [4], the Q is listed as 9.0 (31%) L·hour^−1.kg^-1, the V1 is 4.1 (13%) L.kg^-1, the V2 was 3.5 (18%) L.kg^-1 and the “higher absolute bioavailability in LPS mice” value came out at 200%. Also, in data set [4], the βCL_LPS is on record as -0.43 (42%); the βF_LPS is 1.14 (14%); the “ωCL, percent interindividual variability” value is on record as 24 (37%); the “ωF, percent interindividual variability” value is on record as 16 (38%). For the same compound, in data set [4], the “ωQ, percent interindividual variability” value is listed as 73 (49%); the “ωV1, percent interindividual variability” value was 45 (32%); the “ωV2, percent interindividual variability” value is given as 83 (20%). For the same compound, the Fp.o. olanzapine in data set [6] (population median (%RSE), reference group controls) is reported as 0.075 (12%).
Turning to `O=c1n(CCCN2CCN(c3cccc(Cl)c3)CC2)nc2ccccn12` [trazodone], the fraction unbound at 4 h, 100 ng/mL in [2] was 0.078 to 0.118.

The record behind these values is article PMC12202309 (International Journal of Neuropsychopharmacology, 2025).
